Data set [1] deals with trypanothione synthetase of L. infantum (LiTryS) (Leishmania infantum, UniProt A4I2Z3). In words: TryS activity screening assay on recombinant LiTryS. The class given is biochemical. To be noted: for activity at 30 µM: read-out: LiTryS activity [% at 30 μM]; for LiTryS activity [% at 30 μM]: recombinant TryS, % activity at 30 μM compound, errors 2 SD. Here is the method:
(§1) TryS from different trypanosomatids was produced in recombinant form with an N-terminal His-tag. The constructs pET-15b TbTryS and pET-28c(+)LiTryS were used to express TryS of T. b. brucei 427 (MITat1.4, GenBank accession protein id CAC87573.1), and L. infantum JPCM5 (GenBank accession protein id CAM69145.1). E. coli strain BL21 (DE3) served as the expression host. For TbTryS, the cells were cultured in a medium based in Terrific Broth and induction with isopropyl 1-thio-β-D-galactopyranoside (IPTG), while for LiTryS, the cells were cultured in ZYM-5052 auto-induction medium. For a detailed description of the expression, see Benítez et al.. The purification was performed by immobilised metal affinity chromatography in a HisTrap Fast Flow column (GE Healthcare) followed by size exclusion chromatography. […] The fractions containing recombinant TryS with ≥95% purity were pooled and concentrated to >10 mg protein/mL using a 10 kDa cut-off Amicon filter (Millipore, Billerica, CA). Glycerol was added at a final concentration of 40% (v/v). The samples were stored at -80°C. Enzyme purity and activity were assessed by SDS-PAGE (12%) under reducing conditions and by the end-point TryS assay (see TryS activity screening assay), respectively. Protein concentration was determined using the bicinchoninic acid assay with bovine serum albumin as standard. The protocols yielded 25–30 mg TbTryS or LiTryS per litre of culture medium and homogeneous specific activity.
(§2) For all TryS, ATP was used at 150 μM because of a high background signal at higher concentrations and Spd fixed at 2 mM, in agreement with the intracellular levels calculated from data reported in the literature for trypanosomatids. GSH was adjusted to 0.05 and 0.25 mM for TbTryS and LiTryS, respectively, to avoid substrate inhibition or to approach physiological concentrations. […] Microtiter plate wells were loaded with 5 μL of the test compound, DMSO (reaction control) or a TryS specific inhibitor (inhibition control) and 40 μL of MM solution. The reactions were then started by adding 5 μL of TryS (2 and 3*10^−5 μmol*min^-1*mL^-1 for LiTryS and TbTryS, respectively) and stopped after 15 min with 200 μL BIOMOL® GREEN reagent (Enzo Life Sciences). The compounds used as inhibition control were added at concentrations that inhibited 50% TryS activity: 30 μM and 150 nM MOL2008 for TbTryS and LiTryS, respectively. Blanks were prepared for each condition by adding 5 μL of screening reaction buffer instead of the enzyme. The TryS activity is calculated as follows: TrySactivity%=A650nmCi-A650nmCiB/A650nmE-A650nmEB*100%
(§3) A650 nm Ci is the mean absorbance at 650 nm for the reaction test with compound I (Ci), A650 nm CiB is the mean absorbance at 650 nm for the blank control with compound I (CiB), A650 nm E is the mean absorbance at 650 nm for the reaction control with DMSO (E) and A650 nm EB is the mean absorbance at 650 nm for the blank control with DMSO (EB). The errors were expressed as 2 standard deviations (SD), SD estimated as σ^n−1.

Data set [2] is described as follows: Kinetic aqueous solubility by nephelometry. Type of data set: physicochemical. To be noted: phosphate-buffered saline, aqueous buffer, kinetic from dmso stock, PBS pH 7.4, 1% DMSO, 25°C, logS = decadic logarithm of molar solubility [M]. Here is the method:
Phosphate-buffered saline pH 7.4 was prepared according to the European Pharmacopeia 10.4 by dissolving 2.38 g sodium monohydrogen phosphate dodecahydrate, 0.19 g potassium dihydrogen phosphate and 8.0 g sodium chloride in demineralised water (to a total volume of 1000 mL). The pH was adjusted to a value of 7.4 with hydrochloric acid. The buffer was filtered through a 0.45 μm membrane filter (Chromafil® Xtra PES-45/25) before use.
The kinetic aqueous solubility was determined by nephelometry. The measurements were performed on the NEPHELOstar Plus, with accompanying software Omega 5.11 and MARS 3.20 (BMG LABTECH, Ortenberg, Germany). Generally, 2 dilution series of 1–2 weighed portions of each substance were measured. First, stock solutions of the compounds were prepared in DMSO. A series of dilutions in DMSO were prepared from one stock solution to obtain at least 3 concentrations below and 3 concentrations above the precipitation point in the measured series. The specific concentrations were usually measured as duplicates.
The 96-well plate (Corning UV transparent flat-bottom 96-well plate, Corning Incorporated, Kennenbunk, ME, USA) was inspected for contamination and scratches and measured without samples prior to the solubility measurement of the compounds. 198 μL of phosphate-buffered saline pH 7.4 was placed in a 96 well plate for each well to be measured. 2 μL of a DMSO solution was added and immediately mixed by moving the pipette plunger. This solution either contained no substance—and served as a blank for the measurement (3 wells)—or the respective DMSO dilution of the substance (2–4 wells). The concentration of the solvent DMSO in each measured solution was 1%. The concentration of the compound corresponds to a 1:100 dilution compared to the respective DMSO dilution. The well plate bottom was cleaned with a lint-free cloth and compressed air and inspected for impurities before measurement. After shaking at 500 rpm for 10 s (double orbital), the measurement was carried out in the nephelometer with the laser intensity set to 80% and beam focus of 2.5 mm at a temperature of 25°C.
The obtained measuring points, relative nephelometric units (RNU) per compound concentration, were used to model two straight lines: one straight line with constant low readings and slope → 0 characterises the concentration range where no precipitation has taken place yet; The other straight line has a steep slope and increase of the RNU per concentration and characterises the concentrations at which precipitation takes place in the respective sample vessels.
The evaluation was carried out by calculating the two straight lines and their point of intersection. Outliers and values in a saturation range for the kick-off curve (usually >800 kRNU) were not used to create the straight lines and are listed separately in the evaluation file. […] The x-value of the intersection of the two straight lines represents the kinetic solubility. The results of two dilution series are additionally indicated as range (in brackets). For measurements of 3 or more series, a mean value with standard deviation is provided. The logS value describes the decadic logarithm of the molar solubility: logS (molar solubility [M]).

Data set [3] relates to L. infantum amastigotes (intracellular, in J774.A1 macrophages). The experiment in a line: Viability assay for L. infantum amastigotes. The class given is cell-based. To be noted: Leishmania infantum, J774.A1, 24 h, read-out: L. infantum amastigote viability [% at 20 μM]. Here is the method: Viability assay for L. infantum amastigotes. L. infantum promastigotes from the reference strain MHOM/MA/67/ITMAP263, stably transfected with a vector encoding a red-shifted luciferase gene (RE9HLUC; Branchini et al.; Benítez et al.) were grown in fresh complete RPMI medium (RPMI basic medium containing 25 mM HEPES, 10% v/v iFBS, 100 U/mL penicillin, 100 μg/mL streptomycin and 15 μg/mL hygromycin B) at 28°C in sealed culture flasks. Metacyclic promastigotes were obtained by a negative selection procedure using peanut agglutinin and used to infect murine macrophages (cell line J774.A1) at a 1:10 ratio for macrophages (5×10^6 cells): parasites (5×10^7 cells). 200 μL of this suspension was added per well to a 96-well culture microplate, which was then incubated at 37°C for 24 h in a 5% CO2/95% air atmosphere incubator. […] The culture microplate was incubated in the CO2 incubator for additional 24 h. Next, the supernatant was removed and the microplate wells were washed with pre-warmed PBS (200 μL). […] All conditions were tested in triplicates and the percentage amastigote viability was calculated as described for infective T. b. brucei, with errors expressed as one SD, estimated as σ^n-1.
A macrophage cell density correction factor based on the incorporation of propidium iodide was calculated and applied to normalise amastigote viability related to host cell density in the well. For a detailed explanation of the protocol, see Benítez et al..

For data set [4], the system named is trypanothione synthetase of T. b. brucei (TbTryS). The experiment in a line: TryS activity screening assay on recombinant TbTryS. Type of data set: biochemical. To be noted: % activity at 30 μM compound, errors 2 SD. Here is the method:
as §1, §2, §3

Data set [5] concerns bloodstream form of T. b. brucei strain 427. The experiment in a line: Viability assay for T. b. brucei (whole parasite, bioluminescence). Particulars: 24 h; for T. b. brucei (BS) proliferation [% at 10 μM]: 10 μM compound. Type of data set: cell-based. Here is the method: Viability assay for T. b. brucei. The bloodstream form of the monomorphic T. b. brucei strain 427, cell line 5141313, constitutively and stably expressing an ectopic copy of the Photinus pyralis red-shifted luciferase, was cultured in vitro with HMI-9 medium, supplemented with 10% fetal bovine serum, 10 U/mL penicillin (Gibco), 10 μg/mL streptomycin (Gibco), 0.2 μg/mL bleomycin (Jena Bioscience), 4 μg/mL G418 disulfate salt (Sigma-Aldrich) and 0.2 μg/mL puromycin (Invitrogen), inside a humidified incubator (Thermo Fisher Scientific) with controlled temperature (37°C) and CO2 (5%) in a 25 or 75 cm^2 vented-cap culture-flask. The anti-trypanosomal activity of compounds was evaluated in a 96-well culture plate containing 2.2 μL/well DMSO (negative control) or compounds dissolved in DMSO (1% final concentration), and 220 μL/well of a suspension of 1 × 10^5 parasites/mL. The plates were incubated at 37°C and 5% CO2 for 24 h. Next, each well was transferred to a 96-well black plate, and 20 μL of a solution containing d-luciferin (1.5 mg/mL in PBS glucose 1% w/v) and Triton X-100 (0.05% v/v) was added. Bioluminescence signal was measured in a LUMIstar OPTIMA Microplate luminometer using the following settings: 10 s shaking, 5 s/well acquisition, 0.2 s measurement delay, maximum gain, and 37°C. For the bioluminescence assay, parasite viability was calculated according to the following formula: parasiteviability%=BLcpd-BLblank/BLneg-BLblank*100%
BL refers to the mean of bioluminescence signal corresponding to the tested compound (cpd), the blank (blank, complete media containing 1% v/v DMSO), or the negative control (neg, parasites treated with 1% v/v DMSO). EC50 values were determined from concentration-response curves fitted to a four-parameter sigmoid equation using the GraphPad Prism software (version 6.0). All errors are expressed as one SD, estimated as σ^n-1. For a detailed explanation of the protocol, see Dibello et al..

Structures can show the parent of a compound that is named as a salt.

Chain of trypanothione synthetase of L. infantum (LiTryS) (A4I2Z3 entry or part of it): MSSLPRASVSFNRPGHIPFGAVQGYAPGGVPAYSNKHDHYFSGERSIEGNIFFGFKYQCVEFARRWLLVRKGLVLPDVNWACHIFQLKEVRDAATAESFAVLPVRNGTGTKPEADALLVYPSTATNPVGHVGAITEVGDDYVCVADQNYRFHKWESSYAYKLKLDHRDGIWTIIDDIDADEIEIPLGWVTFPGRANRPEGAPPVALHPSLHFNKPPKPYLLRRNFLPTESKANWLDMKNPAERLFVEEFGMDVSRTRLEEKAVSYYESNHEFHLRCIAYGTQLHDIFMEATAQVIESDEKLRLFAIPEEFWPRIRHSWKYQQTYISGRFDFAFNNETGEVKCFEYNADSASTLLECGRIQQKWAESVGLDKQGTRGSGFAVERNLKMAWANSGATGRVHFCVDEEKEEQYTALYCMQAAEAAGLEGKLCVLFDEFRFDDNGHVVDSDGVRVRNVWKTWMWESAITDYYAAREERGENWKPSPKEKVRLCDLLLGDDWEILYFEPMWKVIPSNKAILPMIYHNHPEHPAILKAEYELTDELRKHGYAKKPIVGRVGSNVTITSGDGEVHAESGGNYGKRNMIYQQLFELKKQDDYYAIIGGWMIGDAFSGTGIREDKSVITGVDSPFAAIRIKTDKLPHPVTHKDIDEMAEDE

A word on the kinetic solubility: it is the concentration staying in solution when a stock, usually in DMSO, is diluted into the medium. On to `Cl.O=C(CN1C(=O)CCCc2ccccc21)N1CCNCC1` [2q, 1-[2-Oxo-2-(piperazin-1-yl)ethyl]-1,3,4,5-tetrahydro-2H-benzo[b]azepin-2-one hydrochloride], for which the activity at 30 µM in data set [1] stood at 113 ± 10.7%. Further, the kinetic solubility at 10 s in data set [2] is greater than 0.00398 M.

For orientation: viability means a read-out of living cells in per cent, often relative to untreated cells. On to `CON=C1CCC(=O)N(CC(=O)NCCN2CCNCC2)c2ccccc21` (mixture of isomers) [5d, (E/Z)-2-[5-(Methoxyimino)-2-oxo-2,3,4,5-tetrahydro-1H-benzo[b]azepin-1-yl]-N-[2-(piperazin-1-yl)ethyl]acetamide dihydrochloride], for which the viability at 20 µM in data set [3] stood at 74.9 ± 11.2%. Also, the activity at 30 µM in data set [1] is 97.5 ± 4.7%. This compound also showed a solubility (kinetic) at 10 s in data set [2] greater than 0.001 M.

In general, EC50 refers to the midpoint of the concentration-response curve. As to `O=C(O)CN1C(=O)Cc2c([nH]c3ccc(I)cc23)-c2ccc(Cl)cc21` [9a, 2-(3-Chloro-9-iodo-6-oxo-7,12-dihydrobenzo[2,3]azepino[4,5-b]indol-5(6H)-yl)acetic acid], the “TbTryS activity [% at 30 μM]” value in data set [4] was 102.9 ± 6.7%. For the same compound, in data set [1], the activity at 30 µM was determined as 67.2 ± 3.9% and the “LiTryS activity [% at 30 μM]” value is reported as “moderate inhibitory activity”. The “T. b. brucei (BS) proliferation [% at 10 μM]” value (shortened to “T. b. brucei … [% at 10 μM]”) in data set [5] was found to be 24.2 ± 3.4%. In data set [5] (Trypanosoma brucei, read-out: T. b. brucei (BS) [EC50), the EC50 came out at 10.5 ± 1.3 µM.

Take `O=C(O)CN1C(=O)Cc2c([nH]c3ccc(Cl)cc23)-c2ccc(Cl)cc21` [9b, 2-(3,9-Dichloro-6-oxo-7,12-dihydrobenzo[2,3]azepino[4,5-b]indol-5(6H)-yl)acetic acid]: the “TbTryS activity [% at 30 μM]” value in data set [4] turned out to be 104.0 ± 10.1%. Moreover, the activity at 30 µM in data set [1] stood at 90.2 ± 6.7%. For the same compound, the “T. b. brucei … [% at 10 μM]” value in data set [5] is 56.4 ± 3.8%.

`O=C(O)CN1C(=O)Cc2c([nH]c3ccc(C(F)(F)F)cc23)-c2ccc(Cl)cc21` [9c, 2-(3-Chloro-6-oxo-9-trifluoromethyl-7,12-dihydrobenzo[2,3]azepino[4,5-b]indol-5(6H)-yl)acetic acid]: in data set [4], the “TbTryS activity [% at 30 μM]” value turned out to be 110.2 ± 11.5%. In data set [1], the activity at 30 µM was found to be 62.4 ± 6.4% and the “LiTryS activity [% at 30 μM]” value was “moderate inhibitory activity”. In addition, in data set [5], the “T. b. brucei … [% at 10 μM]” value came to 61.6 ± 10.2%.

(Values after publication PMC10688702, “The indole motif is essential for the antitrypanosomal activity of N^5-substituted paullones” (PLOS ONE, 2023).)
